Where only a bound is given, the exact number is not on record here.

Consider two compounds from patent US20230116602A1, “MCL1 INHIBITORS AND USES THEREOF” (California Institute of Technology, priority 2019, published 2023).

For data set [1], the target named is BCL2 (Homo sapiens, UniProt P10415). As to the kind of experiment: BCL2 affinity assay (competition binding, qPCR readout). The note with it: recombinant BCL2, 11-point 3-fold dilution series. Summed up:
(§1)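 Kds derived from an 11-point 3-fold compound series measured by qPCR of protein eluted from ligand beads. Recombinant, DNA-tagged protein from E. coli or HEK-293 was mixed with compound and peptide-liganded beads in SeaBlock/PBS/Tween/DTT buffer for 1 hour at room temperature (0.9% DMSO).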

Data set [2] has as its system drug-sensitive cell lines of Table 3. As to the kind of experiment: Cell line growth retardation assay, sensitive cohort. It is filed as cell-based, Human. Put shortly:
(§2)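 Over 6 days of treatment at six concentrations (0.0032–10 μM), given after a 24 h post-seeding rest, population doublings were counted by imaging against a pre-dose baseline and compared with vehicle. Per-line IC50 values came from dose-response fits; cohort averages used arithmetic means, with sensitive/resistant grouping based on response to reference MCL1 inhibitors.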

Data set [3] has as its target BCLXL (Homo sapiens, UniProt Q07817). As to the kind of experiment: BCLXL affinity assay (competition binding, qPCR readout). The note with it: recombinant BCLXL, 11-point 3-fold dilution series. Summed up: as §1
Data set [4] deals with MCL1 (Homo sapiens, UniProt Q07820). The experiment in a line: MCL1 affinity assay (competition binding, qPCR readout). The note with it: recombinant MCL1, 11-point 3-fold dilution series. Summed up: as §1
MCL1, sequence (Q07820 whole entry): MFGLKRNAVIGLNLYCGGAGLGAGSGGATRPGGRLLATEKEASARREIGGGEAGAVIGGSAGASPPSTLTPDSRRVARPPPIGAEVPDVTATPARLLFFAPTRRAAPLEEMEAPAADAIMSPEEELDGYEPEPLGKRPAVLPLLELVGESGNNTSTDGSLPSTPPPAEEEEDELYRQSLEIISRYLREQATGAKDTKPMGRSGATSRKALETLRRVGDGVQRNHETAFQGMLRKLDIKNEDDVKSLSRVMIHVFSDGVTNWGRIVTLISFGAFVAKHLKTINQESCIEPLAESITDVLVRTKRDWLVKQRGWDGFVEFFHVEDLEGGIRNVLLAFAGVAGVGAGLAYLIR
Data set [5] concerns drug-resistant cell lines of Table 3. As to the kind of experiment: Cell line growth retardation assay, resistant cohort. Type of data set: cell-based, Human. To be noted: Homo sapiens, 144 h; arithmetic mean of IC50s over the resistant cohort of Table 3, 6 days growth; read-out: AvgRes IC50. Put shortly:
as §2

Data set [6] relates to AMO-1 myeloma cell line xenograft. As to the kind of experiment: AMO-1 myeloma cell line xenograft study. Type of data set: in vivo. To be noted: AMO-1 xenograft, mice, IV QD for the first 5 days. On the procedure:
FIG. 1 are the results of an AMO-1 myeloma cell line xenograft study with a compound of Formula X. Eight mice were used per group, and mice were dosed by intravenous injection (IV) daily (QD) for the first 5 days of the study with various concentrations of the compound of Formula X.
(§3) FIG. 1 are the results of an AMO-1 myeloma cell line xenograft study with a compound of Formula X and with an MCL1 inhibitor being tested in humans and available as catalog number HY-112218 on Oct. 2, 2020 (MedChemExpress LLC, New Jersey, USA). Eight mice were used per group, and mice were dosed by intravenous injection (IV) daily (QD) for the first 5 days of the study with various concentrations of the compound of Formula X or with HY-112218. The 10 mg/kg dose of HY-112218 and the 60 mg/kg dose of the compound of Formula X are about the maximum tolerated dose for mice and represent a theoretical efficacious dose for humans.
Xenograft models of human cancer cell lines were established in six-week-old CD-1 athymic nude mice by subcutaneous injection of 1.0-3.0×10^7 cells with or without 50% matrigel. […] Tumor xenografts were measured with calipers three times per week, and tumor volume (in mm^3) was determined by multiplying height×width×length. […] Data were analyzed using StudyLog software from StudyDirector (San Francisco, Calif.).

The nature of data set [7]: Maximum tolerated dose in mice. The note with it: CD-1 athymic nude, mouse, in vivo, iv. On the procedure: as §3

BCLXL, sequence (Q07817 whole entry): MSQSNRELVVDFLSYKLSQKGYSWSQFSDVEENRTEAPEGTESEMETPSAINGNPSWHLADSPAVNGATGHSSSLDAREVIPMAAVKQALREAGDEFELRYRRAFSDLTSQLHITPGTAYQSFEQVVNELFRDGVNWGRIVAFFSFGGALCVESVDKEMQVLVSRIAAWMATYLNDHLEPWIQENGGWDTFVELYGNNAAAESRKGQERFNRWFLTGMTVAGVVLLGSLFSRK
BCL2, sequence (P10415 whole entry): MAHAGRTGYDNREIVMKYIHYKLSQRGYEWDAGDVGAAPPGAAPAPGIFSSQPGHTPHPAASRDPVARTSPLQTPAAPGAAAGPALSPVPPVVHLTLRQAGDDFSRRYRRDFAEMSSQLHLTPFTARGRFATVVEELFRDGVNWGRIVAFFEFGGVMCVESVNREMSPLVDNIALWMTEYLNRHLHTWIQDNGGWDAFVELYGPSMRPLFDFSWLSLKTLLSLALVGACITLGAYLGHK

As to `COc1ccccc1-c1nccc(COc2ccccc2C[C@@H](Oc2nsc3cnc(-c4ccc(F)cc4)c(-c4ccc(OCCN5CCN(C)CC5)c(Cl)c4C)c23)C(=O)O)n1` [Compound 40], the Kd was greater than 1500 nM in data set [1], greater than 1500 nM in data set [3] and no more than 100 nM in data set [4]. Also, the IC50 in data set [2] (Homo sapiens, 144 h, arithmetic mean of IC50s over the sensitive cohort of Table 3, 6 days growth, read-out: AvgSen IC50) was no more than 1000 nM; in data set [5], greater than 5000 nM. Moreover, in data set [2] (average IC50 of resistant cohort divided by average IC50 of sensitive cohort), the “Fold Diff” value is on record as “+ (“+” represents a fold difference of 10 or more)”.

For the compound `COc1ccccc1-c1nccc(COc2ccccc2C[C@@H](Oc2ncnc3sc(-c4ccc(F)cc4)c(-c4ccc(OCCN5CCN(C)CC5)c(Cl)c4C)c23)C(=O)O)n1` [HY-112218, (R)-2-((5-(3-chloro-2-methyl-4-(2-(4-methylpiperazin-1-yl)ethoxy)phenyl)-6-(4-fluorophenyl)thieno[2,3-d]pyrimidin-4-yl)oxy)-3-(2-((2-(2-methoxyphenyl)pyrimidin-4-yl)methoxy)phenyl)propanoic acid], in data set [6], the “day of study at which treated tumors resumed growth” value is roughly 21 days. For the same compound, in data set [7], the MTD at 5 days is roughly 10 mg/kg.
